Where two headings read alike, the source gives them in different places. Square brackets hold non-standard residues; d marks the D form. Peptide text beside a SMILES is read from it. * marks the point of attachment. Phe(4-NO2) = N[C@@H](Cc1ccc([N+](=O)[O-])cc1)C(=O)O; Cha = N[C@@H](CC1CCCCC1)C(=O)O; Phg = N[C@H](C(=O)O)c1ccccc1; Morpholide = C1CN(*)CCO1; Pyrrolidide = C1CCN(*)C1; PhAc = O=C(Cc1ccccc1)*; Inp = O=C(O)C1CCNCC1; Bz = O=C(c1ccccc1)*; NHBu = CCCCN*; NHNH2 = NN*
Target: T1, VLA-4 (Homo sapiens, UniProt P05556+P13612)
T1 construct: host or cells: Jurkat (human T lymphoblastic line)
T1 sequence (P13612 34-1032): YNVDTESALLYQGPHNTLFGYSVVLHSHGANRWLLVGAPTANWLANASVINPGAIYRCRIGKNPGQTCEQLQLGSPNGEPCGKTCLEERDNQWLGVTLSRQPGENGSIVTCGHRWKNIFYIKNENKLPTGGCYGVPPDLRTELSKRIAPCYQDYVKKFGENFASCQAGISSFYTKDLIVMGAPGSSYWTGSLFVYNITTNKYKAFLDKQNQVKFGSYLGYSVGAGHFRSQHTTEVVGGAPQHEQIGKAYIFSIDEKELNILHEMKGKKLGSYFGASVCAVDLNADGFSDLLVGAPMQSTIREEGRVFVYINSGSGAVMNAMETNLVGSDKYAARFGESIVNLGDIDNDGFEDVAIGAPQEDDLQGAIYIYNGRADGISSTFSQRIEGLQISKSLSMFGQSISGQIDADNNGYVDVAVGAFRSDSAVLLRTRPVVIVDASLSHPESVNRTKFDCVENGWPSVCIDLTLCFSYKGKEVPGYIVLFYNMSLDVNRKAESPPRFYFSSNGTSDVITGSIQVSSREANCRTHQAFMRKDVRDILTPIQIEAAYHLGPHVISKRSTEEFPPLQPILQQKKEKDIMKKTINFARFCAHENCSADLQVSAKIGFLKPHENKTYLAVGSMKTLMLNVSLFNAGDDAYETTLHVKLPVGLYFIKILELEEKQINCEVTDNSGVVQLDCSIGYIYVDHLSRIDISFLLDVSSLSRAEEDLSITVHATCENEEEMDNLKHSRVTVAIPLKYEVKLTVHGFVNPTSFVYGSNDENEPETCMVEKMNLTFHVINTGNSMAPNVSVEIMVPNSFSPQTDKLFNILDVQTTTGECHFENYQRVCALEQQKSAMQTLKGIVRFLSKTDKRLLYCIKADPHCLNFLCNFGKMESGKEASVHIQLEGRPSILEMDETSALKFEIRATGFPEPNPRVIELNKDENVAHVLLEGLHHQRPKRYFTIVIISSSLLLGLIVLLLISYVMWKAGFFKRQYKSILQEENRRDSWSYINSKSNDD
T1 sequence (P05556 21-798): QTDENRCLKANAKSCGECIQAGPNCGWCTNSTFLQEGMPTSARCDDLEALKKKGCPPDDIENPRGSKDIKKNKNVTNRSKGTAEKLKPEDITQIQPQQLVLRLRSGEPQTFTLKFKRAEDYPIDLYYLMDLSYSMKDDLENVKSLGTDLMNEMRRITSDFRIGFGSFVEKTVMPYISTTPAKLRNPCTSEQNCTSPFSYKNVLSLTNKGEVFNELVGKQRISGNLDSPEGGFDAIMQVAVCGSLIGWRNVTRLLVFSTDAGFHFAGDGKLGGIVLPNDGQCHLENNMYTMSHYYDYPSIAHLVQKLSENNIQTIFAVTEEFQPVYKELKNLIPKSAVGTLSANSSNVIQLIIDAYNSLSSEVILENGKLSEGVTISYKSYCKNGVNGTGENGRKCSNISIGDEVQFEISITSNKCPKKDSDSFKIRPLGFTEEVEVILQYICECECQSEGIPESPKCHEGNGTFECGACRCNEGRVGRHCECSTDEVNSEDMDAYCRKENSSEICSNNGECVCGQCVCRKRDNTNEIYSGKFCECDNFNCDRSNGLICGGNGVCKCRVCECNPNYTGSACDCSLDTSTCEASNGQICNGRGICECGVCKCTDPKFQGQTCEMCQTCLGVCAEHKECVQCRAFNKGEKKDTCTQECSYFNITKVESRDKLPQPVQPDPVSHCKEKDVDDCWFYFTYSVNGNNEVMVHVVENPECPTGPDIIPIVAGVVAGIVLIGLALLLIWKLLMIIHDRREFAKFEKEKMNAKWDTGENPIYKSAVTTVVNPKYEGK
Type: cell-based
Method: Binding inhibition is measured here as a concentration of peptide that inhibits one-half the binding between a standard number of Jurkat cells and a standard amount of CS-1 peptide bound to the surface of a microtiter plate well. Those concentrations are conveniently expressed as IC50 values, smaller numbers indicating a lower concentration required to inhibit 50 percent binding and therefore greater potency. Further specifics of this assay are provided hereinafter.
Jurkat cells (ATCC TIB 152), a human T lymphoblastic line, labeled with ^51 chromium were used to assay in vitro binding inhibition provided by various peptides discussed herein.
The plates were prepared as follows: The 25-mer CS1 peptide (SEQ ID NO:1) dissolved at 0.5-1 μg/ml in a buffer of 0.1M NaHCO3 at pH 9.5 tha also contained 10 μg/ml of bovine serum albumin (BSA) or a conjugate o the CS1 peptide linked to ovalbumin (CS1-OVA) dissolved at 1-2.5 μg/ml in the same buffer was used as the substrate. Each well of the microtiter plates was coated with 50 μl of substrate or buffer alone for controls The wells were permitted to dry out completely and were then rinsed twice with PBS at pH 7.4. Nonspecific binding sites of each well were then blocked using 200 μl per well of RPMI/1 percent BSA for two hours at room temperature. Both solid phaseaffixed substrates provided similar results.
Jurkat cells (3-5×10^6 cells) were placed into a 15 ml Falcon.TM roundbottom tube with a cap. The tube was centrifuged, and the extra medium was then removed.
Two hundred microliters of a ^51 Cr labeling solution were added to th centrifuged cells and maintained in contact with the cells for 90-120 minutes in a warm room. This procedure typically provides about 50,000-100,000 cpm/well with about 80-100 percent cell viability. Longer contact times provide a greater amount of labeling but lower cell viability.
The labeled cells are washed with (i) complete medium, (ii) 1 mM EDTA/PBS and then (iii) RPMI/1 percent BSA free of serum components. The cells are centrifuged after each washing. The cells are finally resuspended in serumfree RPMI/1 percent BSA at a concentration of 1×10^6 viabl cells/ml, which provides a concentration that is diluted by onehalf in th assay.
Inhibitor peptides are prepared as stock solutions at 20 mg/ml in DMSO in 1.5 ml cryogenic screwcap vials, and were stored at -70° C. Using Flow™ roundbottom or Vbottom microtiter plates, the inhibitor peptides were prepared at twice the assay concentration in RPMI/1 percent BSA at 6 μl/well.
Four initial dilutions were typically used.
The ^51 Crlabeled cells (1×10^6 cells at 60 μl/well) were then admixed with the diluted peptide solutions. The admixtures were maintained at room temperature (about 22° C.) for 30 minutes.
One hundred microliters of each inhibitor peptide/cell admixture were transferred to the substratecoated wells. This was done in triplicate for each dilution. The resulting plates were incubated for 30 minutes at 37° C. and then washed gently three times with RPMI/1 percent BSA at 200 μl/well. Binding was observed microscopically, particularly after the second wash.
The bound cells were then lysed by the addition of a 0.5 percent solution of sodium dodecylsulfate in water at 100 μl/well. The resulting solutions were then processed for counting and calculation of IC50 values following usual procedures. Appropriate positive and negative controls were used with each plate so that the results of separate assays could be normalized and compared.

[1] = relative to standard peptide SEQ ID NO:3 (=1), normalized IC50, about one-tenth or less of SEQ ID NO:3 assigned zero

SMILES	RELATIVE POTENCY (inhibition of VLA-4 binding CS-1) [1]	also measured
CC(C)[C@H](NC(=O)[C@H](CC(=O)O)NC(=O)[C@H](CC1CCCCC1)NC(=O)c1ccccc1)C(=O)N1CCC[C@@H]1C(N)=O (Bz-[Cha]DV[dP]-NH2)	11	–
CC(C)C[C@H](NC(=O)Cc1ccccc1)C(=O)N[C@@H](CC(=O)O)C(=O)N[C@@H](Cc1ccccc1)C(=O)N1CC(O)C(O)C1 (stereo partly shown)	194	–
CC(C)C[C@H](NC(=O)Cc1ccccc1)C(=O)N[C@@H](CC(=O)O)C(=O)NC(Cc1ccccc1)Cc1ccccc1	0	–
CC(C)C[C@H](NC(=O)Cc1ccccc1)C(=O)N[C@@H](CC(=O)O)C(=O)N[C@@H](Cc1ccc([N+](=O)[O-])cc1)C(=O)N1CCC[C@@H]1C(N)=O (PhAc-LD[Phe(4-NO2)][dP]-NH2)	40	–
CC(C)C[C@H](NC(=O)Cc1ccccc1)C(=O)N[C@@H](CC(=O)O)C(=O)N[C@@H](Cc1ccccc1)C(=O)N1CCC(C(=O)O)CC1 (PhAc-LDF[Inp]-OH)	828	–
CC(C)C[C@H](NC(=O)Cc1ccccc1)C(=O)N[C@@H](CC(=O)O)C(=O)NN(Cc1ccccc1)Cc1ccccc1	0	–
CC(C)C[C@H](NC(=O)Cc1ccccc1)C(=O)N[C@@H](CC(=O)O)C(=O)N[C@@H]1CCCCNC1=O	17	–
CC(C)C[C@H](NC(=O)Cc1ccccc1)C(=O)N[C@@H](CC(=O)O)C(=O)N[C@H](C(=O)N1CCC[C@@H]1C(N)=O)c1ccccc1 (PhAc-LD[Phg][dP]-NH2)	61	–
CCCCNC(=O)[C@H](Cc1ccccc1)NC(=O)[C@H](CC(=O)O)NC(=O)[C@H](CC(C)C)NC(=O)Cc1ccccc1 [X L D F Z phenylacetyl n-butylamide] (PhAc-Leu-Asp-Phe-NHBu)	3	–
CC(C)C[C@H](NC(=O)Cc1ccccc1)C(=O)N[C@@H](CC(=O)O)C(=O)N[C@@H](Cc1ccc(O)cc1)C(=O)N1CCC[C@@H]1C(N)=O [X L D Y p phenylacetyl amide, N--phenylacetyl--Leu--Asp--Tyr--D--Pro--NH2] (PhAc-LDY[dP]-NH2)	640	RELATIVE POTENCY (inhibition of VLA-4 binding CS-1) (relative to standard peptide SEQ ID NO:3 (=1), normalized IC50, about one-tenth or less of SEQ ID NO:3 assigned zero, listed as X L D Y P phenylacetyl amide): 405
CC(C)C[C@H](NC(=O)Cc1ccccc1)C(=O)N[C@@H](CC(=O)O)C(=O)N[C@@H](Cc1ccccc1)C(=O)N1CCOCC1 [X L D F Z phenylacetyl morpholinamide, N--phenylacetyl--Leu--Asp--Phe--morpholinamide] (PhAc-Leu-Asp-Phe-Morpholide)	844	–
CC(C)C[C@H](NC(=O)Cc1ccccc1)C(=O)N[C@@H](CC(=O)O)C(=O)N[C@@H](CC(C)C)C(=O)N1CCOCC1 [X L D L Z phenylacetyl morpholinamide] (PhAc-Leu-Asp-Leu-Morpholide)	291	–
NC(=O)[C@H]1CCCN1C(=O)[C@H](Cc1ccccc1)NC(=O)[C@H](CC(=O)O)NC(=O)[C@H](CC1CCCCC1)NC(=O)c1ccccc1 (Bz-[Cha]DF[dP]-NH2)	17	–
CC(C)C[C@H](NC(=O)Cc1ccccc1)C(=O)N[C@@H](CC(=O)O)C(=O)N[C@@H](Cc1ccccc1)C(=O)N1CCCC1 [X L D F Z phenylacetyl pyrrolidinamide] (PhAc-Leu-Asp-Phe-Pyrrolidide)	250	–
CC(C)C[C@H](NC(=O)Cc1ccccc1)C(=O)N[C@@H](CC(=O)O)C(=O)N[C@@H](Cc1ccccc1)C(=O)N1CC[N+](C)(C)CC1	313	–
CC(C)C[C@H](NC(=O)Cc1ccccc1)C(=O)N[C@@H](CC(=O)O)C(=O)NC1CCCCN(CC(N)=O)C1=O (stereo partly shown)	97	–

SMILES	RELATIVE POTENCY (inhibition of VLA-4 binding CS-1) [1]	also measured
CCCCCCCCCC(=O)OC1CCN(C(=O)[C@H](Cc2ccccc2)NC(=O)[C@H](CC(=O)O)NC(=O)[C@H](CC(C)C)NC(=O)Cc2ccccc2)CC1	< 1	–
CC(C)C[C@H](NC(=O)Cc1ccccc1)C(=O)N[C@@H](CC(=O)O)C(=O)N[C@@H](Cc1c[nH]c2ccccc12)C(=O)N1CCC[C@@H]1C(N)=O [X L D W p phenylacetyl amide] (PhAc-LDW[dP]-NH2)	184	–
CC(C)C[C@H](NC(=O)Cc1ccccc1)C(=O)N[C@@H](CC(=O)O)C(=O)NN [X L D Z phenylacetyl hydrazide] (PhAc-Leu-Asp-NHNH2)	< 1	–
CC(C)C[C@H](NC(=O)Cc1ccccc1)C(=O)N[C@@H](CC(=O)O)C(=O)N(Cc1ccccc1)Cc1ccccc1 [X L D Z phenylacetyl dibenzylamide]	0	–
CC(C)C[C@H](NC(=O)Cc1ccccc1)C(=O)N[C@@H](CC(=O)O)C(=O)N[C@@H](Cc1ccccc1)C(=O)N1CCS(=O)(=O)CC1	1060	–
CC(C)C[C@H](NC(=O)Cc1ccccc1)C(=O)N[C@@H](CC(=O)O)C(=O)NC1Cc2ccccc2N(CC(N)=O)C1=O (stereo partly shown)	45	–
CC(C)C[C@H](NC(=O)Cc1ccccc1)C(=O)N[C@@H](CC(=O)O)C(=O)N[C@H](C(=O)N1CCC[C@@H]1C(N)=O)C(C)C [X L D V p phenylacetyl amide, N--phenylacetyl--Leu--Asp--Val--D--Pro--NH2]	106	–
CC(C)C[C@H](NC(=O)Cc1ccccc1)C(=O)N[C@@H](CC(=O)O)C(=O)N[C@@H](Cc1ccccc1)C(=O)N1CCC[C@H]1C(=O)NCCN(CCN(CCN(CCNC(=O)[C@@H]1CCCN1C(=O)[C@H](Cc1ccccc1)NC(=O)[C@H](CC(=O)O)NC(=O)[C@H](CC(C)C)NC(=O)Cc1ccccc1)C(=O)[C@@H]1CCCN1C(=O)[C@H](Cc1ccccc1)NC(=O)[C@H](CC(=O)O)NC(=O)[C@H](CC(C)C)NC(=O)Cc1ccccc1)C(=O)[C@@H]1CCCN1C(=O)[C@H](Cc1ccccc1)NC(=O)[C@H](CC(=O)O)NC(=O)[C@H](CC(C)C)NC(=O)Cc1ccccc1)C(=O)[C@@H]1CCCN1C(=O)[C@H](Cc1ccccc1)NC(=O)[C@H](CC(=O)O)NC(=O)[C@H](CC(C)C)NC(=O)Cc1ccccc1	–	VLA-4 binding inhibition, times better than the standard 10-mer peptide of SEQ ID NO:3: about 210 times
CC(C)C[C@H](NC(=O)Cc1ccccc1)C(=O)N[C@@H](CC(=O)O)C(=O)N[C@H]1Cc2ccccc2[C@H]2CCCCN2C1=O	50	–
CC(C)C[C@H](NC(=O)Cc1ccccc1)C(=O)N[C@@H](CC(=O)O)C(=O)NCCN1CCOCC1	13	–
CC(C)C[C@H](NC(=O)Cc1ccccc1)C(=O)N[C@@H](CC(=O)O)C(=O)N[C@@H](CO)C(=O)N1CCC[C@@H]1C(N)=O [X L D S p phenylacetyl amide] (PhAc-LDS[dP]-NH2)	17	–
CC(C)C[C@H](NC(=O)c1ccccc1)C(=O)N[C@@H](CC(=O)O)C(=O)N[C@@H](Cc1ccccc1)C(=O)N1CCC[C@@H]1C(N)=O [X L D F p benzoyl amide] (Bz-LDF[dP]-NH2)	75	–
CC(C)C[C@H](NC(=O)Cc1ccccc1)C(=O)N[C@@H](CC(=O)O)C(=O)N[C@@H](Cc1ccccc1)C(=O)N1CCN(CCOCCO)CC1	505	–
CC(C)C[C@H](NC(=O)Cc1ccccc1)C(=O)N[C@@H](CC(=O)O)C(=O)NC1Cc2ccccc2N(CCN2CCOCC2)C1=O (stereo partly shown)	20	–
CC(=O)N[C@@H](CC(C)C)C(=O)N[C@@H](CC(=O)O)C(=O)N[C@H](C(N)=O)C(C)C [L D V acetyl amide, reference compound] (Ac-Leu-Asp-Val-NH2)	–	RELATIVE POTENCY (inhibition of VLA-4 binding CS-1): 0
CC(C)C[C@H](NC(=O)c1ccccc1)C(=O)N[C@@H](CC(=O)O)C(=O)N[C@H](C(=O)N1CCC[C@H]1C(N)=O)C(C)C [X L D V P benzoyl amide]	37	RELATIVE POTENCY (inhibition of VLA-4 binding CS-1) (relative to standard peptide SEQ ID NO:3 (=1), normalized IC50, about one-tenth or less of SEQ ID NO:3 assigned zero, listed as X L D V p benzoyl amide): 20

Source: patent US6117840A, “CS-1 peptidomimetics, compositions and methods of using the same” (Cytel Corporation, priority 1997, dated 2000)
